Structures are written as SMILES. In brackets after ≈: the same amount, converted by molar mass.

A short description of this data set: Toxicity in Artemia larvae. Type of data set: organism-based. The following applies: in vivo, read-out: LD50 (the source's name).

With `C=C1CCC[C@H]2[C@](C)(CC3=C(O)C(=O)C=C(OC)C3=O)[C@@H](C)CC[C@@]12C`, the LC50 came to 4 µg/mL (≈ 11.2 µM).
The value for `COC1=CC(=O)C(O)=C(C[C@]2(C)[C@@H](C)CC[C@]3(C)C(C)=CCC[C@@H]23)C1=O` [ISOSPONGIAQUINONE] was 2 µg/mL (≈ 5.58 µM).

The values above are taken from ChEMBL document CHEMBL1154560, “New sesquiterpene/quinones from two sponges of the genus Hyrtios” (J Nat Prod, 2000).
